Assay results: patent publication US10857113B2, “Bezafibrate for the treatment of cancer” (Cipla Limited, priority 2016, dated 2020)
pIC50: −log10 of the molar value. Where two headings read alike, the source gives them in different places.

What was measured:
[1] = background statement; cited from earlier work
RXF 393L = assay: In vitro 2D assay (CellTiter-Blue); assay type: cell-based; details: Homo sapiens, 2D model, 96 hour treatment
From the text: (§1) Cell lines RXF 1183L, RXF 1220L, RXF 1781L, RXF 393L and RXF 486L were established at Oncotest from the corresponding human patient-derived xenograft. The cell lines 786-O, A-498, Caki-1 and SN12C were purchased from NCI (National Cancer Institute, Bethesda, Md., USA). ACHN was purchased from ECACC (European Collection of Cell Cultures, Salisbury, UK). Authenticity of cell lines was confirmed at the DSMZ by STR (short tandem repeat) analysis, a PCR based DNA-fingerprinting methodology.
(§2) Cell lines were routinely passaged once or twice weekly and maintained in culture for up to 20 passages. All cells were grown at 37° C. in a humidified atmosphere with 5% CO2 in RPMI 1640 medium (25 mM HEPES, with L-glutamine, # FG1385, Biochrom, Berlin, Germany) supplemented with 10% (v/v) fetal calf serum (Sigma, Taufkirchen, Germany) and 0.1 mg/mL gentamicin (Life Technologies, Karlsruhe, Germany).
(§3) Bezafibrate was dissolved at a concentration of 100 mM in 100% Methanol and next 1:5 diluted with cell culture media (20 mM, 20% Methanol). Starting with this solution, serial dilutions (1:1.6) were prepared with cell culture medium. Next, 150 μL of the serial dilutions were transferred to the assay plates upon removing the cell culture media of each well (complete change of medium on assay plates). Thus the final test concentrations were 10,240, 6,400, 4,000, 2,500, 1,563, 977, 610, and 381 μM. The maximum methanol concentrations were 6% and 10%. No precipitation was observed.
(§4) Cells were harvested from exponential phase cultures, counted and plated in 96-well flat-bottom microtiter plates at a cell density of 4,000-12,000 cells/well depending on the cell line's growth rate. After a 24 hour recovery period to allow the cells to resume exponential growth, test compounds were added. Compounds were applied at 8 to 10 concentrations in duplicate and treatment continued for 96 hour. After 96 hour treatment of cells, 20 μL/well CellTiter-Blue® reagent was added. Following an incubation period of up to four hours, fluorescence (FU) was measured by using the Enspire Multimode Plate Reader (excitation λ=531 nm, emission λ=615 nm).
(§5) For calculations, the mean values of duplicate/quadruplicate (untreated control) data were used. Sigmoidal concentration-response curves were fitted to the data points (T/C values) obtained for each cell line using 4 parameter non-linear curve fit.

RXF 1781L = assay: In vitro 2D assay (CellTiter-Blue); assay type: cell-based; details: Homo sapiens, 2D model, 96 hour treatment
From the text: as §1, §2, §3, §4, §5

RXF 486L = assay: In vitro 2D assay (CellTiter-Blue); assay type: cell-based; details: Homo sapiens, 2D model, 96 hour treatment
From the text: as §1, §2, §3, §4, §5

A-498 = assay: In vitro 2D assay (CellTiter-Blue); assay type: cell-based; details: Homo sapiens, A498, 2D model, 96 hour treatment
From the text: as §1, §2, §3, §4, §5

ACHN = assay: In vitro 2D assay (CellTiter-Blue); assay type: cell-based; details: Homo sapiens, 2D model
From the text: as §1, §2, §3, §4, §5

RXF 1183L = assay: In vitro 2D assay (CellTiter-Blue); assay type: cell-based; details: Homo sapiens, 2D model, 96 hour treatment
From the text: as §1, §2, §3, §4, §5

786-O = assay: In vitro 2D assay (CellTiter-Blue); assay type: cell-based; details: Homo sapiens, 786-0, 2D model, 96 hour treatment
From the text: as §1, §2, §3, §4, §5

SN12C = assay: In vitro 2D assay (CellTiter-Blue); assay type: cell-based; details: Homo sapiens, 2D model, 96 hour treatment
From the text: as §1, §2, §3, §4, §5

RXF 1220L = assay: In vitro 2D assay (CellTiter-Blue); assay type: cell-based; details: Homo sapiens, 2D model
From the text: as §1, §2, §3, §4, §5

Caki-1 = assay: In vitro 2D assay (CellTiter-Blue); assay type: cell-based; details: Homo sapiens, 2D model, 96 hour treatment
From the text: as §1, §2, §3, §4, §5

A498 cells = assay: In vivo animal efficacy study, subcutaneous tumor fragment xenograft; design: species or system female athymic nude mice; details: sunitinib 20 mg/kg, bezafibrate 150 mg/kg, p.o. q.d. × 21
Description: Healthy 10 female athymic nude mice were recruited for the donor cell inoculation. Animals were subcutaneously injected at flank region with 10 million A498 cells suspended in 200 μl of media and matrigel. Animals were monitored for solid tumor growth. […] Tumors were fragmented in to ˜30 mg size. […] [table] The tumor sizes were measured weekly twice from the date of tumor appearance till the end of the experiment. Tumor size was measured by digital vernier caliper (MITUTOYO) by measuring length (L=longest axis) and width (W=shortest axis). Tumor Volume (V) was calculated using formula: […] Mean tumor volume and % tumor growth inhibition (% TGI) were then calculated (SEM=standard error of mean).

[2] = second run 381 to 10,240 μM, read-out: Absolute IC50
[3] = 96 hour treatment, read-out: Relative IC50
[4] = 96 hour treatment, second run 381 to 10,240 μM, read-out: Absolute IC50
[5] = first run 93 to 4,000 μM, read-out: IC50

SMILES: CC(C)(Oc1ccc(CCNC(=O)c2ccc(Cl)cc2)cc1)C(=O)O [Bezafibrate]
- Reduction of low-density lipoprotein cholesterol (LDL-C) [1]: 15-20%
- Reduction of triglycerides [1]: 30-50%
- pIC50 (RXF 393L; [2]): 2.98
- pIC50 (RXF 393L; read-out: Relative IC50): 2.78
- pIC50 (RXF 1781L; read-out: Relative IC50): 2.71
- pIC50 (RXF 1781L; [2]): 2.73
- pIC50 (RXF 486L; read-out: Relative IC50): 2.88
- pIC50 (RXF 486L; [2]): 3.01
- pIC50 (A-498; [2]): 2.67
- pIC50 (A-498; read-out: Relative IC50): 2.64
- pIC50 (ACHN; [3]): 2.95
- pIC50 (ACHN; [4]): 2.98
- pIC50 (ACHN; [5]): 2.97
- pIC50 (RXF 1183L; [2]): 3.02
- pIC50 (RXF 1183L; read-out: Relative IC50): 2.98
- pIC50 (786-O; [2]): 3.10
- pIC50 (786-O; read-out: Relative IC50): 2.97
- pIC50 (SN12C; read-out: Relative IC50): 2.92
- pIC50 (SN12C; [2]): 3.02
- pIC50 (RXF 1220L; [4]): 2.71
- pIC50 (RXF 1220L; [3]): 2.68
- pIC50 (RXF 1220L; [5]): 2.47
- pIC50 (Caki-1; read-out: Relative IC50): 2.85
- pIC50 (Caki-1; [2]): 2.91
- Tumor Growth Inhibition (A498 cells; Day 1): 0.44%
- Tumor Volume, Mean (A498 cells; Day 1): 146.92 mm^3
- Tumor Volume, Mean (A498 cells; Day 6): 198.50 mm^3
- Tumor Growth Inhibition (A498 cells; Day 9): 21.70%
- Tumor Volume, Mean (A498 cells; Day 9): 363.14 mm^3
- Tumor Growth Inhibition (A498 cells; Day 13): 24.92%
- Tumor Volume, Mean (A498 cells; Day 13): 463.30 mm^3
- Tumor Growth Inhibition (A498 cells; Day 16): 26.18%
- Tumor Volume, Mean (A498 cells; Day 16): 709.65 mm^3
- Tumor Growth Inhibition (A498 cells; Day 20): 31.59%
- Tumor Volume, Mean (A498 cells; Day 20): 875.99 mm^3
- Anti-tumor efficacy / effect in inhibiting tumor growth (in words) (A498 cells): shows anti-tumor efficacy
